Data reported in patent US9718804B2, “GSK-3 inhibitors” (BRISTOL-MYERS SQUIBB COMPANY, priority 2013, dated 2017).
Where two headings read alike, the source gives them in different places.

Legend:
GSK3β = GSK3β (Homo sapiens, UniProt P49841); assay: GSK3β kinase assay (Caliper LabChip, fluoresceinated peptide substrate); type: biochemical
Method: (§1) The kinase assay was performed in V-bottom 384-well plates. […] The reaction was incubated at room temperature for 20 hours and terminated by adding 45 μl of 35 mM EDTA to each sample. The reaction mixture was analyzed on the Caliper LabChip3000 (Caliper, Hopkinton, Mass.) by electrophoretic separation of the unphosphorylated substrate and phosphorylated product. […] Compounds were dissolved at 10 mM in dimethylsulfoxide (DMSO) and evaluated at eleven concentrations. IC50 values were derived by non-linear regression analysis.

GSK3α = GSK3α (Homo sapiens, UniProt P49840); assay: GSK3α kinase assay (Caliper LabChip, fluoresceinated peptide substrate); type: biochemical
Method: as §1

pTau = pTau assay (no method described); type: cell-based
[1] = first value of the cell, 250 pM enzyme, 20 uM ATP, 20 hours at room temperature, read-out: GSK3β/α (nM): GSK3β IC50

GSK3α, sequence (P49840 whole entry, species assumed): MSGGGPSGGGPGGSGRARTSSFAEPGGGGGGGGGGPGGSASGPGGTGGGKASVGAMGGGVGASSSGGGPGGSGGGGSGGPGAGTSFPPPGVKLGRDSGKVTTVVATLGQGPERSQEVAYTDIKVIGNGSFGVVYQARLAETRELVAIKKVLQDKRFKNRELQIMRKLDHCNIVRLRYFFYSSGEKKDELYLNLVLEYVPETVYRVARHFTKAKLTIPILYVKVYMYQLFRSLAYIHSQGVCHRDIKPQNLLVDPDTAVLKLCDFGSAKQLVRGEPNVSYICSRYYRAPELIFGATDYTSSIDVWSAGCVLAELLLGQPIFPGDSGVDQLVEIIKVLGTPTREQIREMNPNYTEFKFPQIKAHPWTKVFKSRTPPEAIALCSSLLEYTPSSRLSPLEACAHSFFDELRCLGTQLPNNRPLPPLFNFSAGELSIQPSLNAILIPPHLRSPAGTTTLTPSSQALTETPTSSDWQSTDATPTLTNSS
GSK3β, sequence (P49841 whole entry, species assumed): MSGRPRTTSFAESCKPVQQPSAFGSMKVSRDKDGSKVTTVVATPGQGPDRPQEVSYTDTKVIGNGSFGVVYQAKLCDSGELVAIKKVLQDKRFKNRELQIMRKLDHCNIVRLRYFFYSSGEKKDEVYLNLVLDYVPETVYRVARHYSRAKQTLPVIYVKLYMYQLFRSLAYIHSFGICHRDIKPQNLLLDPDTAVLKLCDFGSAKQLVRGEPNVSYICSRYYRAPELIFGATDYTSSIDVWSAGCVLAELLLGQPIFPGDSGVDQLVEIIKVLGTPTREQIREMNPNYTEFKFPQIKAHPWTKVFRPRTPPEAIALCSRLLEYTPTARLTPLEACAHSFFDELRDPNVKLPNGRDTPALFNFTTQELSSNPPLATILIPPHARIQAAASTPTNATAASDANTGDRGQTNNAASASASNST

| IC50 (GSK3β; [1]) [nM] | IC50 (GSK3α) [nM] | IC50 (GSK3β) [nM] | IC50 (pTau) [nM] | SMILES |
| --- | --- | --- | --- | --- |
| 1.2 | 0.77 |  |  | CS(=O)(=O)c1ccncc1NC(=O)c1ccnc(Nc2ccc(C(F)(F)F)cn2)c1 [Example 181, N-(4-(Methylsulfonyl)pyridin-3-yl)-2-((5-(trifluoromethyl)pyridin-2-yl)amino)isonicotinamide] |
|  | 2.4 | 3.5 |  | N#Cc1ccc(-c2cncc(NC(=O)c3ccnc(Nc4cccc(C#N)n4)c3)c2)cc1 [Example 162, N-(5-(4-Cyanophenyl)pyridin-3-yl)-2-((6-cyanopyridin-2-yl)amino)isonicotinamide] |
| 4.5 |  |  | 360 | CCc1nc(Nc2cc(C(=O)Nc3cncc(-c4ccccc4F)c3)ccn2)ccc1C#N [Example 148, 2-((5-Cyano-6-ethylpyridin-2-yl)amino)-N-(5-(2-fluorophenyl)pyridin-3-yl)isonicotinamide] |
| 3.5 |  |  | 1100 | O=C(Nc1cncc(-c2ccccc2F)c1)c1ccnc(Nc2cccc(Cl)n2)c1 [Example 150] |
| 4.3 | 1.2 |  |  | CC(C)[S+]([O-])c1ccncc1NC(=O)c1ccnc(Nc2ccc(C(F)(F)F)cn2)c1 (stereo not drawn) [Example 179, N-(4-(isopropylsulfinyl)pyridin-3-yl)-2-((5-(trifluoromethyl)pyridin-2-yl)amino)isonicotinamide] |
| 7.3 |  |  | 360 | N#Cc1cnn(-c2cncc(NC(=O)c3ccnc(Nc4ccc(C(F)(F)F)cn4)c3)c2)c1 [Example 118, N-(5-(4-Cyano-1H-pyrazol-1-yl)pyridin-3-yl)-2-((5-(trifluoromethyl)pyridin-2-yl)amino)isonicotinamide] |
|  |  |  | 2 | Cc1cc(C2(C3CC3)OCCO2)c(NC(=O)c2ccnc(Nc3ccc(C(F)(F)F)cn3)c2)cn1 [Example 105, N-(4-(2-Cyclopropyl-1,3-dioxolan-2-yl)-6-methylpyridin-3-yl)-2-((5-(trifluoromethyl)pyridin-2-yl)amino)isonicotinamide] |
| 0.77 | 0.59 |  |  | O=C(Nc1cnccc1-c1ccccn1)c1ccnc(Nc2ccc(C(F)(F)F)cn2)c1 [Example 43, N-([2,4′-Bipyridin]-3′-yl)-2-((5-(trifluoromethyl)pyridin-2-yl)amino)isonicotinamide] |
| 2.6 |  |  | 165 | O=C(Nc1cnc(F)cc1OCC(F)(F)F)c1ccnc(Nc2ccc(C(F)(F)F)cn2)c1 [Example 69, N-(6-Fluoro-4-(2,2,2-trifluoroethoxy)pyridin-3-yl)-2-((5-(trifluoromethyl)pyridin-2-yl)amino)isonicotinamide] |
| 16 | 7.6 |  |  | NC(=O)c1ccc(Nc2cc(C(=O)Nc3cncc(-c4ccccc4F)c3)ccn2)nc1 [Example 160, 6-((4-((5-(2-Fluorophenyl)pyridin-3-yl)carbamoyl)pyridin-2-yl)amino)nicotinamide] |
| 13 |  |  | 120 | O=C(Nc1cnccc1C1CCCCO1)c1ccnc(Nc2ccc(C(F)(F)F)cn2)c1 (stereo not drawn) [Example 41, N-(4-(Tetrahydro-2H-pyran-2-yl)pyridin-3-yl)-2-((5-(trifluoromethyl)pyridin-2-yl)amino)isonicotinamide] |
| 2.9 | 1.1 |  |  | O=C(Nc1cnncc1C(=O)C1CC1)c1ccnc(Nc2ccc(C(F)(F)F)cn2)c1 [Example 202, N-(5-(Cyclopropanecarbonyl)pyridazin-4-yl)-2-((5-(trifluoromethyl)pyridin-2-yl)amino)isonicotinamide] |
| 1.5 | 0.73 |  |  | O=C(Nc1cnccc1OCC(F)(F)F)c1cc(Nc2ccc(C(F)(F)F)cn2)ncc1F [Example 168, 5-Fluoro-N-(4-(2,2,2-trifluoroethoxy)pyridin-3-yl)-2-((5-(trifluoromethyl)pyridin-2-yl)amino)isonicotinamide] |
| 23 | 8 |  |  | COC(=O)/C=C/c1ccc(Nc2cc(C(=O)Nc3cncc(-c4ccccc4F)c3)ccn2)nc1 [Example 161] |
